Key:
SMN2 promoter = SMN2 promoter β-lactamase reporter assay in NSC34 motor neuron-like cells; type: cell-based; conditions: for Promoter (SMN2 promoter test, summary YES/NO): Table 13 summary; for SMN2 promoter activity: treatment for 19 hours at a concentration of 1 μM
Protocol: FIG. 30 illustrates a screen for SMN2 expression of a number of compounds described herein.
SMN2 promoter activity was measured using NSC34 motor neuron-like cells stably transfected with a β-lactamase (BLA) reporter gene under the control of a 3.4-kilobase fragment of the SMN2 promoter. D156844 was used as a positive control for this assay.

mice [1] = assay: Maximal Electroshock Seizure (MES) test, mice i.p.; type: in vivo; conditions: for activity in the MES test: mice, at 100 mg/kg
rats [2] = assay: Pilocarpine-induced Status Epilepticus in Rats (prevention; intervention @ 30 min); conditions: Rattus norvegicus
Protocol: The animal testing was performed using the protocols developed in the Anticonvulsant Screening Program (ASP) at the National Institute of Neurological Disorders and Stroke (NINDS), National Institutes of Health (NIH).

mice [3] = assay: 6 Hz (minimal clonic seizure) model, mice i.p.; type: in vivo; conditions: for 6 Hz (32 mA), fraction of animals: mice i.p.
rats [4] = assay: MES test, rats p.o.; type: in vivo; conditions: at 30 mg/kg
[5] = tested on: inclusion of exon 7 in SMN2 mRNAs; assay: Exon 7 inclusion BLA reporter assay in NSC34 cell line; type: cell-based
Source text: To measure changes in the inclusion of exon 7 in SMN2 mRNAs, another NSC34 cell line was used that stably transfected with a reporter construct which expresses BLA when exon 7 is included in the SMN2 minigene mRNAs. 5-(N-ethyl-N-isopropyl)-amiloride (EIPA) was used as a positive control for this assay. Data for tis assay is illustrated in FIG. 30.

mice [6] = assay: Subcutaneous Metrazol Seizure threshold (s.c. MET) test, mice i.p.; type: in vivo; conditions: for activity in the s.c. MET test: mice, at 300 mg/kg
mice [7] = assay: Minimal motor impairment (MID50), mice i.p.; conditions: mice i.p.; @ 0.25 hr
Protocol: (§1) The animal testing was performed according to methods known in the relevant art.

[8] = tested on: rat dopaminergic N27 cells; assay: N27 protection assay against oxidative stress (H2O2 or MPP+; MTT and LDH); type: cell-based; conditions: drug 24 hours before 200 μM H2O2 or 640 μM MPP+
Source text: FIGS. 20A-25D data are shown illustrating neuroprotective and neuroregenerative effects observed in rat dopaminergic N27 cells. Rat dopaminergic N27 cells are commonly used in in vitro and in vivo model systems for studying Parkinson's disease. Parkinson's disease is a neurodegenerative disorder of the central nervous system that affects more than 6 million people worldwide. The motor symptoms of Parkinson's disease result from the death of dopamine generating cells in the substantia nigra, a region of the midbrain.
The N27 rat dopaminergic neuron cell line was harvested from E12 rat mesencephalic tissue and was transfected with SV40 to immortalize the cell line. The N27 cell line, when injected into the striata of 6-hydroxydopamine-lesioned rats (an animal model of PD) caused a time-dependent improvement in neurological deficits. This immortalized cell line has been carefully characterized in studies of dopamine biosynthesis, neurotoxicity and used as a dopaminergic neuron model studies.
The N27 in vitro Parkinson's disease model included a test of cell viability and cell toxicity in response to exposure to oxidative stress (e.g., either 200 μM H2O2 or 640 μM MPP+).
Cell viability was tested using the MTT assay. The MTT assay is a colorimetric analysis based on the activities of mitochondrial NAD(P)H-dependent cellular oxidoreductase enzymes. These enzymes are capable of reducing the tetrazolium dye, MTT [3-(4,5-dimethylthiazol-2-yl)-2,5-diphenyltetrazolium] bromide, to an insoluble formazan (purple). […] More viable cells equal more accumulation of the insoluble formazan dye.
Cell toxicity was tested using the […] (LDH) assay. Cells that are stressed secrete LDH. In general, the more cells are stressed, the LDH they secrete into their media. The LDH assay is a reliable colorimetric assay to measure quantitatively the […] (LDH) that is released into the cell culture media from damaged cells as a biomarker for cytotoxicity and cytolysis.
FIGS. 20A-25D present data from two types of assays: protection and recovery assays. In the protection assays, the drug candidate was applied to the cells at various concentrations for 24 hours, followed by the exposure to oxidative stress (either 200 μM H2O2 or 640 μM MPP+) for measuring neuroprotective effect. H2O2 provides a broad measure of oxidative stress, while MPP+ gives a more specific oxidative stress to dopaminergic neurons.
The protection assay results are shown in panels A-C of FIGS. 20-25 In the recovery assays, the cells were first damaged by exposure to H2O2 and then various concentrations of the drug were applied to the cells. The results for the recovery assays are shown the D panels of FIGS. 20-25.

in vivo = conditions: mouse, ip
Protocol: as §1

[9] = read-out: Prevention, Protection
[10] = NSC34 exon 7 BLA reporter cells

For `COc1ccc(C(CC(N)=O)C2CC2)cc1` (stereo not shown) [AM, 3-Cyclopropyl-3-(4-methoxy-phenyl)-propionamide], the “SMN2 promoter assay, particularly strong hits” value (SMN2 promoter; NSC34 BLA reporter cells) was “Particularly strong hits”, the “Promoter (SMN2 promoter test, summary YES/NO)” value (SMN2 promoter) was “YES” and the SMN2 promoter activity (SMN2 promoter) was “increased SMN2 promoter activity”. The “MES, fraction of animals” value (mice [1]; mice i.p., 100 mg/kg @ 0.25 hr) was 1/3 @, the “activity in the MES test” value (mice [1]) was “activity” and the responders at 400 mg/kg (rats [2]; 0.5 h, read-out: Intervention @ 30 min, Protection) was 38%. For the same compound, the responders at 200 mg/kg (rats [2]; [9]) was 100%, the “6 Hz (32 mA), fraction of animals” value (mice [3]; 100 mg/kg @ 0.25 hr) was 1/4 and the “6 Hz (32 mA), fraction of animals” value (mice [3]; 100 mg/kg @ 0.5 hr) was 2/4. For the same compound, the “6 Hz (32 mA), fraction of animals” value (mice [3]; 100 mg/kg @ 1.0 hr) was 1/4 @, the “activity in the MES test” value (rats [4]) was “activity” and the “effect on the inclusion of exon 7 in SMN2 transcripts” value [5, 10] was “positive effect on the inclusion of exon 7”. The “exon 7 test, particularly strong hits” value [5, 10] was “Particularly strong hits” and the “Exon 7 inclusion (summary YES/NO)” value ([5]; Table 13 summary) was “YES”.

In the case of `NC(=O)CC1(c2ccc(Cl)cc2)CC1` [AH], the MES ED50 (mice [1]; mice i.p., @ 0.25 hr) is reported as 69.6 mg/kg, the “s.c. MET ED50” value (mice [6]; mice i.p., @ 0.25 hr, in mg/kg) is reported as 77.98 and the “MID50 (TD50)” value (mice [7]) is reported as 185.73. For the same compound, the “neuroprotective effect against H2O2 and MPP+ oxidative stresses (MTT and LDH assays)” value (shortened to “neuroprotective effect”) [8] was “statistically significant, dose-dependent neuroprotection”.

With `COc1ccc(C(CC(N)=O)C(C)C)cc1C` (stereo not shown) [AS, 3-(4-Methoxy-3-methyl-phenyl)-4-methylpentanoic acid amide] the “Promoter (SMN2 promoter test, summary YES/NO)” value (SMN2 promoter) was “YES”, the SMN2 promoter activity (SMN2 promoter) was “increased SMN2 promoter activity” and the “activity in the MES test” value (mice [1]) was “activity”. The responders at 200 mg/kg (rats [2]; [9]) was 100%, the “activity in the MES test” value (rats [4]) was “activity” and the “neuroprotective effect” value [8] was “potent dose-dependent neuroprotective effects”.

With `CC(CC(=O)N1CCCC1)c1ccc(OC(F)(F)F)cc1` (stereo not shown) [BG, 1-Pyrrolidin-1-yl-3-(4-trifluoromethoxy-phenyl)-butan-1-one] the “MES, fraction of animals” value (mice [1]; mice i.p., 100 mg/kg @ 0.5 hr) was 1/3 @, the “activity in the MES test” value (mice [1]) was “activity” and the “activity in the MES test” value (rats [4]) was “activity”.

For `CC(CC(N)=O)c1ccc(Cl)cc1` (stereo not shown) [BV, 3-[4-chloro-phenyl]butyramide], the “MES, fraction of animals” value (mice [1]; mice i.p., 100 mg/kg @ 0.5 hr) was 2/3 @, the “activity in the MES test” value (mice [1]) was “activity” and the “activity in the MES test” value (rats [4]) was “activity”.

In the case of `CCC(CC(N)=O)c1ccc(C(F)(F)F)cc1` (stereo not shown) [Compound AA, 3-(4-Trifluoromethylphenyl)-pentanamide], the “SMN2 promoter assay, particularly strong hits” value (SMN2 promoter; NSC34 BLA reporter cells) is reported as “particularly strong hits”, the “Promoter (SMN2 promoter test, summary YES/NO)” value (SMN2 promoter) is reported as “YES” and the SMN2 promoter activity (SMN2 promoter) is reported as “increased SMN2 promoter activity”. The ED50 (mice [1]; Mus musculus, ip, mice i.p., @ 0.5 hrs) was 86.6 mg/kg, the “activity in the MES test” value (mice [1]) was “activity” and the “activity in the 6 Hz (minimal clonic seizure) model” value (mice [3]; mice, at 100 mg/kg) was “activity”. For the same compound, the TD50 at 0.25 hr (in vivo) was 142 mg/kg, the ED50 (mice [6]; Mus musculus, mice i.p., @ 0.5 hrs) was 149 mg/kg and the “activity in the s.c. MET test” value (mice [6]) was “activity”. For the same compound, the “activity in the MES test” value (rats [4]) was “activity” and the “neuroprotective effect” value [8] was “statistically significant, dose-dependent neuroprotection”.

For `CC(C)C(CC(N)=O)c1ccc(F)cc1` (stereo not shown) [AQ, 3-(4-Fluoro-phenyl)-4-methyl-pentanoic acid-amide], the “SMN2 promoter assay, evidence of activity (may warrant further study)” value (SMN2 promoter; NSC34 BLA reporter cells) was “show evidence of activity”, the “activity in the MES test” value (mice [1]) was “activity” and the responders at 65 mg/kg (rats [2]; [9]) was 86%. For the same compound, the “activity in the s.c. MET test” value (mice [6]) was “activity” and the “activity in the MES test” value (rats [4]) was “activity”.

Source: patent publication US12486218B2, “Compounds advantageous in the treatment of central nervous system diseases and disorders” (AurimMed Pharma, Inc., priority 2008, dated 2025)
